Experimental findings from patent publication US20060063736A1, “Compositions and methods for inhibiting mucin-type O-linked glycosylation” (priority 2004, published 2006) are described below.

For orientation: IC50 means the concentration at which inhibition is half-maximal. By EC50 is commonly meant the midpoint of the concentration-response curve.

Molecules are shown by their SMILES. Like-named read-outs stand apart in the source and are kept apart here.

The target of assay [1] is T1, rppGalNAcT-5 (Rattus norvegicus, UniProt O88422).
T1 construct: plasmids encoding truncated secreted ppGalNAcTs-1 to −5, -7, -10 and -11; FLAG; made in house; host or cells: COS-7
T1 sequence (O88422 36-930 limits assumed): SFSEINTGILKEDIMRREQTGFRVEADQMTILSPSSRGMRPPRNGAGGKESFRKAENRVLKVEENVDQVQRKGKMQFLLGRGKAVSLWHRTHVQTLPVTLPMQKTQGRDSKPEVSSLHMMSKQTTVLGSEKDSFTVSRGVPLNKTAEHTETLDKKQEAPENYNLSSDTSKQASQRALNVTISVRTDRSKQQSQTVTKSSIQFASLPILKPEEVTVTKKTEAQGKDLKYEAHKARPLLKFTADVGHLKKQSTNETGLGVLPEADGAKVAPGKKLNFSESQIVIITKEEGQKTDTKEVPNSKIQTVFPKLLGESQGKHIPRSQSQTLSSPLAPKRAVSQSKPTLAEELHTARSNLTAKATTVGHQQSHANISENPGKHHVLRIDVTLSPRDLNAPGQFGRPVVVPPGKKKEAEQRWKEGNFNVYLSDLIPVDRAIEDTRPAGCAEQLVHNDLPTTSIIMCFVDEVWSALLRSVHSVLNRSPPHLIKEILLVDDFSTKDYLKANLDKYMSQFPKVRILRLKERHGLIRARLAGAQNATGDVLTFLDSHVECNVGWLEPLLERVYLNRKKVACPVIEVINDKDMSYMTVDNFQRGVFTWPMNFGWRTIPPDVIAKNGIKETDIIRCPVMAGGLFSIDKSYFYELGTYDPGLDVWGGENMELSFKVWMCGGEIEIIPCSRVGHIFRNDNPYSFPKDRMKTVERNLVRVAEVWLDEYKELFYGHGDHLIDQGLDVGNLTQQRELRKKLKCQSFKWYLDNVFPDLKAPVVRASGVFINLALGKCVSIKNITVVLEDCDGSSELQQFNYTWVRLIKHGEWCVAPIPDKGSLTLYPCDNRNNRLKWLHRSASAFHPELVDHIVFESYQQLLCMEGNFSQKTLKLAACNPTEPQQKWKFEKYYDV
The assay is described as follows: Radiolabel capture assay, rppGalNAcT-5. It counts as biochemical. The settings on record: α-FLAG purified enzyme. Here is the method: Radiolabel capture assays using ^14C-labeled UDP-GalNAc were performed as previously described with various concentrations of 1-68A or 2-68A in 2% DMSO. Ten Hagen et al. (2001) J. Biol. Chem. 276:17395-17404.
Table 1. IC50 values for 1-68A and 2-68A with ppGalNAcTs-1 to −5, -7, -10, -11, β1-4GalT and α1-3GalT. The requirement of glycopeptides as substrates for ppGalNAcT-7 and -10 precluded the use of the ELLA, as both the substrate and product bind HPA-HRP. Thus, the radiolabel capture assay was employed to measure the IC50 values of 1-68A and 2-68A with ppGalNAcT-7 and -10 using MUC5AC (GTTPSPVPTTSTTSAP; SEQ ID NO:15) glycopeptide, previously shown to be substrate for both enzymes. Ten Hagen et al. (1999) J. Biol. Chem. 274:27867-27874; and Ten Hagen et al. (2001) J. Biol. Chem. 276:17395-17404. IC50 values of 1-68A and 2-68A with ppGalNAcT-5 were performed with α-FLAG purified enzyme and radiolabel capture assay, due to low activity and stability of the crude enzyme. m=murine, r=rattus.

Assay [2] has as its system Jurkat cells. The assay is described as follows: HPA staining of Jurkat cells (Tn-antigen), flow cytometry. The class given is cell-based, human. As to conditions: Homo sapiens, 48 h, read-out: EC50 of inhibition of HPA staining. How it is done:
Jurkat cells were seeded at 250,000 cells/well (determined by Coulter cell counter) in 12-well polystyrene tissue culture plates in 1.0 mL of media and treated with various concentrations of 1-68A or 2-68A from 50 mM dimethyl sulfoxide (DMSO) stock solutions or doxorubicin or campothecin from 1 mM DMSO stock solutions. After 2 d, cells were harvested, washed twice with PBS buffer (PBS, pH 7.4, 0.1% FCS, 0.1% NaN3 w/v) and stained with FITC-HPA (1 μg/mL) or FITC-Con A (5 μg/mL with 1 mM CaCl2) in PBS, pH 7.4 in the dark for 1 h at 4° C. Cells were washed twice with PBS buffer, resuspended in 300 μL of PBS buffer and analyzed by flow cytometry (FacsCaliber, BD Instruments). Annexin-V staining was performed according to the manufacturer's protocols (Invitrogen).
To directly monitor ppGalNAcT activities in cells, Jurkat cells (human T-cell lymphoma), which are known to produce only the Tn-antigen (FIG. 1) as their O-linked glycans, were chosen. Piller et al. (1990) J. Biol. Chem. 265:9264-9271. Changes in Tn-antigen expression on the surface of Jurkat cells were monitored by HPA binding followed by flow cytometry analysis. Con A staining of N-linked glycans was used as a control for non-specific inhibition of protein glycosylation. Baenziger and Fiete (1979) J. Biol. Chem. 254:2400-2407.

Compound `O=c1ccn([C@@H]2O[C@H](CON=Cc3ccc(O)c(O)c3O)[C@@H](O)[C@H]2O)c(=O)[nH]1` [1-68A] showed an IC50 in assay [1] of 20 ± 2 µM. Moreover, the EC50 in assay [2] (Jurkat cells, 2 d treatment) was approximately 80 µM.
In the case of `O=C(CON=Cc1ccc(O)c(O)c1O)NC[C@H]1O[C@@H](n2ccc(=O)[nH]c2=O)[C@H](O)[C@@H]1O` [2-68A], the IC50 in assay [1] was determined as 26 ± 9 µM. In addition, the EC50 in assay [2] (Jurkat) is approximately 80 µM.
